Laboratory results reported in patent US20260217767A1, “NOVEL A4B7 THIOETHER PEPTIDE DIMER ANTAGONISTS” (Protagonist Therapeutics, Inc., priority 2014, published 2026).
Like-named read-outs stand apart in the source and are kept apart here. *1 amine or outer side, *2 acyl side, *3 side chain or, on linkers, in order; H or OH if unused. Where a SMILES comes first, the peptide text is derived from it. Bridges are numbered along the chain shown (N, C = ends). Roman numbers before positions name the chains, in order. [ ]: non-standard residue; d: D form. Bip = N[C@@H](Cc1ccc(-c2ccccc2)cc1)C(=O)O; 1Nal = N[C@@H](Cc1cccc2ccccc12)C(=O)O; Diglycolyl = O=C(COCC(=O)[*:2])[*:1]; NMeR = CN[C@@H](CCCNC(=N)N)C(=O)O; β3hE = N[C@@H](CCC(=O)O)CC(=O)O; X1 = O=C(c1ccccc1C[*:2])[*:1]; Pen = CC(C)(S)[C@H](N)C(=O)O

Target: T1, RPMI 8866 cells (Homo sapiens, UniProt P13612+P26010)
T1 sequence (P13612 34-1032): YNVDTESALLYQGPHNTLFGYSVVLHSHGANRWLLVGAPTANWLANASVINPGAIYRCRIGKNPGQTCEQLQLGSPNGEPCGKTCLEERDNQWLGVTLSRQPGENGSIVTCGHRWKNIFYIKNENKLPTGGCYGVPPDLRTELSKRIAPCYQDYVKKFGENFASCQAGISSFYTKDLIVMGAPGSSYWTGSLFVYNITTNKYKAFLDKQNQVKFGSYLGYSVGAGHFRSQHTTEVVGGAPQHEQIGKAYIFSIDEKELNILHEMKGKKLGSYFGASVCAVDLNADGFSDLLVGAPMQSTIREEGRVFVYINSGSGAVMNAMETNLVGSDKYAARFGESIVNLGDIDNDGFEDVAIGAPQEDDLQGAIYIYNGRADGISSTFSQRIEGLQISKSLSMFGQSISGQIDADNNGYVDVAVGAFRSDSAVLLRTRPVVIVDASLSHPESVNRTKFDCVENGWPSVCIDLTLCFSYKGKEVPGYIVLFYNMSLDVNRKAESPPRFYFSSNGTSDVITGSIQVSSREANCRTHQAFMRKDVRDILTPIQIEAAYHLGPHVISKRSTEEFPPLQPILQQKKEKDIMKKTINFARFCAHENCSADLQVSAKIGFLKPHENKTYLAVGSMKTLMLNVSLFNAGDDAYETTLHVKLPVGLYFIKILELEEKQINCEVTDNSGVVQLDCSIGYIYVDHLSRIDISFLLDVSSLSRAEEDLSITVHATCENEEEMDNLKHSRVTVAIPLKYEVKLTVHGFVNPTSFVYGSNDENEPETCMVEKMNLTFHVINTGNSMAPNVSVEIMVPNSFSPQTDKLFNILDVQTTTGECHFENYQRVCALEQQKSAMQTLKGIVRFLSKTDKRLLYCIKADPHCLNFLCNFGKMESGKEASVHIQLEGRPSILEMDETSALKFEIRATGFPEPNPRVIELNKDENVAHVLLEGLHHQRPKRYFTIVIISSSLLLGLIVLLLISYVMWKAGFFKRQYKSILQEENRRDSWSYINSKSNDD
T1 sequence (P26010 20-798): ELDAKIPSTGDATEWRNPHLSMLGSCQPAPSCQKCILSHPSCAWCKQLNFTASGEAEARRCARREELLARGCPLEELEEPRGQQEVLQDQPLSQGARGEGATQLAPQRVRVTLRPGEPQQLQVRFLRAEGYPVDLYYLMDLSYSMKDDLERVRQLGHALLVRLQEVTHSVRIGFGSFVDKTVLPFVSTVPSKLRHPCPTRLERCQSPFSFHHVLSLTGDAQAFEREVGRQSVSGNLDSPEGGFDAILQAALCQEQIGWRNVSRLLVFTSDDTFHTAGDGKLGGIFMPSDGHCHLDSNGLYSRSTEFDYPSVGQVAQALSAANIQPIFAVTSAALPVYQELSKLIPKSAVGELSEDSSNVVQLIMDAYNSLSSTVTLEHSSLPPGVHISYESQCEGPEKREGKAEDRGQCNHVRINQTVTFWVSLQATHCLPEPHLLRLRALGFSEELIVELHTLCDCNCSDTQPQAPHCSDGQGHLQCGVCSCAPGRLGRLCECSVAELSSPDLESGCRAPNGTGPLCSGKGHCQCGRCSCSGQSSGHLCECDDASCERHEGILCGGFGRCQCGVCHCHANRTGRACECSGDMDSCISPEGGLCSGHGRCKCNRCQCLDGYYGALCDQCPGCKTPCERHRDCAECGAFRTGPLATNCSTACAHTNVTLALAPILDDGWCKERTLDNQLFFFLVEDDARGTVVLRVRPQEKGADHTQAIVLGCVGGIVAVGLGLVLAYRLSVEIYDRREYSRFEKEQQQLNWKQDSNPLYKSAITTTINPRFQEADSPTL
Assay: α4β7-MAdCAM Cell Adhesion Assay
Assay type: cell-based
Settings: read-out: Cell-Adhesion A4B7
Method in brief: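 RPMI 8866 cells (200,000/well) in DMEM with 1 mM MnCl2 and 0.1% BSA were allowed to adhere 30-45 min at 37° C to plates coated with rh MAdCAM-1/Fc (200 ng/well) in presence of serially diluted peptide. After washing, bound cells quantified by MTT, absorbance 570 nm, cell-free background subtracted.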

[1] = thioether peptide dimers, Table 7
[2] = thioether monomer peptides, Table 6

SMILES	IC50 [1]	IC50 [2]
CC(C)C[C@@H]1NC(=O)[C@H]([C@@H](C)O)NC(=O)[C@H](CC(=O)O)NC(=O)[C@H](CO)NC(=O)[C@H](CCCNC(=N)N)N(C)C(=O)c2ccccc2CSC(C)(C)[C@@H](C(=O)N[C@@H](Cc2ccc(-c3ccccc3)cc2)C(=O)N[C@H](CCC(=O)O)C(=O)N[C@H](CCCCNC(=O)COCC(=O)NCCCC[C@@H](NC(=O)[C@@H](CCC(=O)O)NC(=O)[C@H](Cc2ccc(-c3ccccc3)cc2)NC(=O)[C@H]2NC(=O)[C@H](CC(C)C)NC(=O)[C@H]([C@@H](C)O)NC(=O)[C@H](CC(=O)O)NC(=O)[C@H](CO)NC(=O)[C@H](CCCNC(=N)N)N(C)C(=O)c3ccccc3CSC2(C)C)C(=O)O)C(=O)O)NC1=O [compound 208] (I: [NMeR]SDTL[Pen][Bip][dE][dK]-OH / II: [NMeR]SDTL[Pen][Bip][dE][dK]-OH; linker I:9-II:9 via Diglycolyl; linker I:N-I:6, II:N-II:6 via X1)	< 0.025 µM	
CC(C)C[C@@H]1NC(=O)[C@H]([C@@H](C)O)NC(=O)[C@H](CC(=O)O)NC(=O)[C@H](CO)NC(=O)[C@H](CCCNC(=N)N)N(C)C(=O)c2ccccc2CSC(C)(C)[C@@H](C(=O)N[C@@H](Cc2c[nH]c3ccccc23)C(=O)N[C@@H](CCC(=O)O)C(N)=O)NC1=O [compound 96] (HELM PEPTIDE1{[meR].S.D.T.L.[Pen].W.E.[am]}|CHEM1{[O=C(c1ccccc1C[*:2])[*:1]]}$PEPTIDE1,CHEM1,1:R1-1:R1|PEPTIDE1,CHEM1,6:R3-1:R2$$$V2.0)		0.1 to 1 µM
CC(C)C[C@@H]1NC(=O)[C@H]([C@@H](C)O)NC(=O)[C@H](CC(=O)O)NC(=O)[C@H](CO)NC(=O)[C@H](CCCNC(=N)N)N(C)C(=O)c2ccccc2CSC(C)(C)[C@@H](C(=O)N[C@@H](Cc2c[nH]c3ccccc23)C(=O)N[C@H](CCC(=O)O)C(=O)N[C@H](CCCCNC(=O)COCC(=O)NCCCC[C@@H](NC(=O)[C@@H](CCC(=O)O)NC(=O)[C@H](Cc2c[nH]c3ccccc23)NC(=O)[C@H]2NC(=O)[C@H](CC(C)C)NC(=O)[C@H]([C@@H](C)O)NC(=O)[C@H](CC(=O)O)NC(=O)[C@H](CO)NC(=O)[C@H](CCCNC(=N)N)N(C)C(=O)c3ccccc3CSC2(C)C)C(=O)O)C(=O)O)NC1=O [compound 209] (I: [NMeR]SDTL[Pen]W[dE][dK]-OH / II: [NMeR]SDTL[Pen]W[dE][dK]-OH; linker I:9-II:9 via Diglycolyl; linker I:N-I:6, II:N-II:6 via X1)	< 0.025 µM	
CC(C)C[C@@H]1NC(=O)[C@H]([C@@H](C)O)NC(=O)[C@H](CC(=O)O)NC(=O)[C@H](CO)NC(=O)[C@H](CCCNC(=N)N)N(C)C(=O)c2ccccc2CSC(C)(C)[C@@H](C(=O)N[C@@H](Cc2c[nH]c3ccccc23)C(=O)N[C@H](CCC(=O)O)C(=O)N[C@@H](CO)C(N)=O)NC1=O [compound 100] (HELM PEPTIDE1{[meR].S.D.T.L.[Pen].W.[dE].S.[am]}|CHEM1{[O=C(c1ccccc1C[*:2])[*:1]]}$PEPTIDE1,CHEM1,1:R1-1:R1|PEPTIDE1,CHEM1,6:R3-1:R2$$$V2.0)		0.025 to 0.1 µM
CC(C)C[C@@H]1NC(=O)[C@H]([C@@H](C)O)NC(=O)[C@H](CC(=O)O)NC(=O)[C@H](CO)NC(=O)[C@H](CCCNC(=N)N)N(C)C(=O)c2ccccc2CSC(C)(C)[C@@H](C(=O)N[C@@H](Cc2cccc3ccccc23)C(=O)N[C@H](CCC(=O)O)C(=O)N(C)[C@@H](CCCCN)C(N)=O)NC1=O [compound 69] (HELM PEPTIDE1{[meR].S.D.T.L.[Pen].[O=C([C@H](Cc1cccc2ccccc12)N[*:1])[*:2]].[dE].[meK].[am]}|CHEM1{[O=C(c1ccccc1C[*:2])[*:1]]}$PEPTIDE1,CHEM1,1:R1-1:R1|PEPTIDE1,CHEM1,6:R3-1:R2$$$V2.0)		0.1 to 1 µM
CC(C)C[C@@H]1NC(=O)[C@H]([C@@H](C)O)NC(=O)[C@H](CC(=O)O)NC(=O)[C@H](CO)NC(=O)[C@H](CCCNC(=N)N)N(C)C(=O)c2ccccc2CSC(C)(C)[C@@H](C(=O)N[C@@H](Cc2ccc(-c3ccccc3)cc2)C(=O)N[C@@H](CCC(=O)O)CC(N)=O)NC1=O [compound 133] ([NMeR]SDTL[Pen][Bip][β3hE]-NH2; linker N-6 via X1)		< 0.025 µM
CC(C)C[C@@H]1NC(=O)[C@H]([C@@H](C)O)NC(=O)[C@H](CC(=O)O)NC(=O)[C@H](CO)NC(=O)[C@H](CCCNC(=N)N)N(C)C(=O)c2ccccc2CSC(C)(C)[C@@H](C(=O)N[C@@H](Cc2c[nH]c3ccccc23)C(=O)N[C@H](CCC(=O)O)C(=O)N[C@@H](Cc2c[nH]cn2)C(N)=O)NC1=O [compound 102] (HELM PEPTIDE1{[meR].S.D.T.L.[Pen].W.[dE].H.[am]}|CHEM1{[O=C(c1ccccc1C[*:2])[*:1]]}$PEPTIDE1,CHEM1,1:R1-1:R1|PEPTIDE1,CHEM1,6:R3-1:R2$$$V2.0)		0.025 to 0.1 µM
CC(C)C[C@@H]1NC(=O)[C@H]([C@@H](C)O)NC(=O)[C@H](CC(=O)O)NC(=O)[C@H](CO)NC(=O)[C@H](CCCNC(=N)N)N(C)C(=O)c2ccccc2CSC(C)(C)[C@@H](C(=O)N[C@@H](Cc2cccc3ccccc23)C(=O)N[C@H](CCC(=O)O)C(=O)N[C@H](CCCCNC(=O)COCC(=O)NCCCC[C@@H](NC(=O)[C@@H](CCC(=O)O)NC(=O)[C@H](Cc2cccc3ccccc23)NC(=O)[C@H]2NC(=O)[C@H](CC(C)C)NC(=O)[C@H]([C@@H](C)O)NC(=O)[C@H](CC(=O)O)NC(=O)[C@H](CO)NC(=O)[C@H](CCCNC(=N)N)N(C)C(=O)c3ccccc3CSC2(C)C)C(N)=O)C(N)=O)NC1=O [compound 158] (I: [NMeR]SDTL[Pen][1Nal][dE][dK]-NH2 / II: [NMeR]SDTL[Pen][1Nal][dE][dK]-NH2; linker I:9-II:9 via Diglycolyl; linker I:N-I:6, II:N-II:6 via X1)	< 0.025 µM	
CC(C)C[C@@H]1NC(=O)[C@H]([C@@H](C)O)NC(=O)[C@H](CC(=O)O)NC(=O)[C@H](CO)NC(=O)[C@H](CCCNC(=N)N)N(C)C(=O)c2ccccc2CSC(C)(C)[C@@H](C(=O)N[C@@H](Cc2c[nH]c3ccccc23)C(=O)N[C@@H](CCC(=O)O)C(=O)N[C@@H](CCN)C(N)=O)NC1=O [compound 93] (HELM PEPTIDE1{[meR].S.D.T.L.[Pen].W.E.[Dab].[am]}|CHEM1{[O=C(c1ccccc1C[*:2])[*:1]]}$PEPTIDE1,CHEM1,1:R1-1:R1|PEPTIDE1,CHEM1,6:R3-1:R2$$$V2.0)		0.025 to 0.1 µM
CC(C)C[C@@H]1NC(=O)[C@H]([C@@H](C)O)NC(=O)[C@H](CC(=O)O)NC(=O)[C@H](CO)NC(=O)[C@H](CCCNC(=N)N)N(C)C(=O)c2ccccc2CSC(C)(C)[C@@H](C(=O)N[C@@H](Cc2c[nH]c3ccccc23)C(=O)N[C@H](CCC(=O)O)C(=O)N[C@H](CCC(=O)O)C(N)=O)NC1=O [compound 108] (HELM PEPTIDE1{[meR].S.D.T.L.[Pen].W.[dE].[dE].[am]}|CHEM1{[O=C(c1ccccc1C[*:2])[*:1]]}$PEPTIDE1,CHEM1,1:R1-1:R1|PEPTIDE1,CHEM1,6:R3-1:R2$$$V2.0)		0.025 to 0.1 µM
CC(C)C[C@@H]1NC(=O)[C@H]([C@@H](C)O)NC(=O)[C@H](CC(=O)O)NC(=O)[C@H](CO)NC(=O)[C@H](CCCNC(=N)N)N(C)C(=O)c2ccccc2CSC(C)(C)[C@@H](C(=O)N[C@@H](Cc2c[nH]c3ccccc23)C(=O)N[C@H](CCC(=O)O)C(=O)N[C@@H](Cc2ccccc2)C(N)=O)NC1=O [compound 101] (HELM PEPTIDE1{[meR].S.D.T.L.[Pen].W.[dE].F.[am]}|CHEM1{[O=C(c1ccccc1C[*:2])[*:1]]}$PEPTIDE1,CHEM1,1:R1-1:R1|PEPTIDE1,CHEM1,6:R3-1:R2$$$V2.0)		0.1 to 1 µM
